Source: patent US10676747B2, “Methods for improving cognitive function via modulation of quinone reductase 2” (Carmel-Haifa University Economic Corp. Ltd., priority 2014, dated 2020)

Tests used:
QR2 = molecular target: T1, QR2 (Homo sapiens, UniProt P16083); settings: literature statement; cited from earlier work
T1 sequence (P16083 1-231): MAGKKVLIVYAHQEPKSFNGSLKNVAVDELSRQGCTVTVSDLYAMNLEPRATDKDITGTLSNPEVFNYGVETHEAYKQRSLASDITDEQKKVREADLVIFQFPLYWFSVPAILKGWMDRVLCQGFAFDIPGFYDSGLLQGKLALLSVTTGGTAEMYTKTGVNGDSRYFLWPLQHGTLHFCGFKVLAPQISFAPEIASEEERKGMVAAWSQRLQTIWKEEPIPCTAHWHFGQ

rats [1] = assay: CTA protocol with NaCl: negative taste memory after QR2 inhibitor injection; assay type: in vivo, rat; settings: n=8; for AI compared with vehicle-injected group: CTA with NaCl, Fisher's LSD test; for Aversion index (AI): CTA, 0.5% NaCl, LiCl 0.03M, inhibitor 10 mg/kg i.p. one hour before, mean+/-SEM
Protocol: (§1) Subjects—Adult male Wistar Hola rats (Harlan Laboratories, Jerusalem) within a weight range of 200-300 gr (corresponding to an age of 8 to 12 weeks) were used for this study. They were maintained on a 12 hour light/dark cycle and all experiments were carried out during the light cycle. Additionally, the rats had ad libtum access to food and water unless otherwise indicated. The procedures were performed in strict accordance with the University of Haifa regulations and the US National Institutes of Health guidelines (NIH publication number 8023).
(§2) The vehicle—In all of the experiments in which we utilized pharmacological agents they were prepared in physiological saline. Physiological saline was prepared in house by dissolving NaCl in DDW (0.9% w/v). The physiological saline was injected to the controls in all experiments in which the test group(s) was injected with a pharmacological agent. The same volume of the vehicle was injected as the pharmacological agent.
(§3) QR2 inhibitors—We used two inhibitors of QR2 activity, S29434 and S26695, obtained from Pharmacolgie Moleculaire et Cellulaire, Institut de Recherches Servier. The inhibitors were dissolved in dimethyl sulfoxide (DMSO) and then added to physiological saline. The final concentration of dimethyl sulfoxide in the physiological saline was 5%. These inhibitors were injected prior to the learning process intraperitoneally (i.p.) 10 mg/kg.
(§4) Aversion index—the aversion index is calculated by the following equation [(total water ingested/(novel taste liquid ingested+water ingested))*100].
Conditioned Taste Aversion (CTA)—Two groups of rats were deprived from water for a period of 24 hours. This was followed by 3 days of restriction were the rats received two pipettes each filled with 10 ml of water for 20 minutes each day. […] Forty minutes following the exposure to the novel liquid the rats in the experimental group received an injection of LiCl (prepared in double distilled water (DDW)) (2% bodyweight, intraperitoneally (i.p.)) and those in the control received an injection of physiological saline (2% bodyweight, i.p.).
M&M—We used three groups in this experiment, all of which were subjected to three days of water restriction. Following the three day water restriction period one group was injected with the vehicle; one group with S29434; one group with S26695. Then, one hour after the injections, all three groups were subjected to the CTA protocol: we gave them access to two pipettes containing 10 ml of 0.5% w/v NaCl each (a novel taste) for 20 minutes (in this experiment NaCl as the novel taste was used since CTA conducted with NaCl leads to a lower AI which prevents a ceiling effect from occurring and allows us to evaluate if the inhibitors generate an increase in learning and therefore a higher AI). […]

rats [2] = assay: LI-CTA protocol: positive taste memory after QR2 inhibitor injection; assay type: in vivo, rat; settings: n=8; for Aversion index (AI): 0.1% saccharin, inhibitor 10 mg/kg i.p. one hour before pre-exposure, choice test three days after LiCl, mean+/-SEM; for AI compared with vehicle-injected groups (CTA and LI-CTA): Fisher's LSD post-hoc test
Protocol: as §1, §2, §3, §4
Conditioned Taste Aversion (CTA)—Two groups of rats were deprived from water for a period of 24 hours. This was followed by 3 days of restriction were the rats received two pipettes each filled with 10 ml of water for 20 minutes each day. On the fourth day both groups received two pipettes each filled with 10 ml of an unfamiliar tasting liquid, either saccharine (0.1% w/v) or NaCl (0.3% w/v), for 20 minutes. Forty minutes following the exposure to the novel liquid the rats in the experimental group received an injection of LiCl (prepared in double distilled water (DDW)) (2% bodyweight, intraperitoneally (i.p.)) and those in the control received an injection of physiological saline (2% bodyweight, i.p.).
LI-CTA learning paradigm. This paradigm presents the animal with a novel taste. The animal is then given 48 hours during which it will form a memory of the taste and will consider the taste to be a safe taste. The animal will then be presented with the taste again and then injected with LiCl in order to induce malaise. Normally when an animal is presented with a taste and then has malaise induced (CTA) the animal will form a very high aversion to that taste. […]

COc1ccc2[nH]cc(CCNC(C)=O)c2c1 [Melatonin]
QR2 inhibition (QR2): inhibits QR2 activity

CNS(=O)(=O)c1ccc2cccc(CCNC(C)=O)c2c1 [S26695, N-[2-(7-methylaminosulfonyl-1-naphthyl)ethyl]acetamide]
AI compared with vehicle-injected group (rats [1]): significantly higher AI | Aversion index (AI) (rats [1]): 86.84+/−2.17 | Aversion index (AI) (rats [2]): 68.44+/−4.44 | AI compared with vehicle-injected groups (CTA and LI-CTA) (rats [2]): significantly lower AI

COc1ccc2c(n1)c(CCNC(=O)c1ccco1)c1n2Cc2cccnc2-1 [S29434, N-[2-(2-methoxy-6h-dipyrido[2,3-α:3,2-e]pyrrolizin-11-yl)ethyl]-2-furamide]
AI compared with vehicle-injected group (rats [1]): significantly higher AI | Aversion index (AI) (rats [1]): 92% | Aversion index (AI) (rats [2]): 56.16+/−6.15 | AI compared with vehicle-injected groups (CTA and LI-CTA) (rats [2]): significantly lower AI

Oc1ccc(/C=C/c2cc(O)cc(O)c2)cc1 [resveratrol]
QR2 inhibition (QR2): efficiently inhibits QR2
